# Test system: Th17 cells
# Assay: Lipidomics of Th17 cells
# Type: cell-based, mouse
# Set-up: key to nCE(16:0) / nCE(18:2) / nDCER(22:0) / nDCER[FA14:0] / nFFA(12:0) / nFFA(14:1) / nFFA(18:4) / nCE(22:0) / nCE(22:6) / nCE(24:1) / nCE[FA14:1] / nCE(12:0) / nCE[FA16:0] / nCE[FA17:0] / nCE[FA18:2] / nCE[FA22:6]: mole percent of each fatty acid within its lipid class
# Procedure: Specific cholesterol precursors like desmosterol and oxysterols, such as 7β, 27-dihydroxycholesterol (7β, 27-OHC), have been identified as ligands for RORγt[21],[22] and shown to modulate Th17 differentiation. […] Next, we extended our studies to lipid metabolites and profiled the lipidome of Th17 cells treated with DMSO or FGIN-1-27.
# (a) Quantitation of cholesterol esters, triacylglycerols (TAGs), phosphatidylethanolamine (PE) and phosphatidylcholine (PC) in Th17 cells 72 hours after treatment with FGIN-1-27. The error bars represent SD. (b) Heat map showing fatty acid composition (mole percent) for different lipid classes after treatment with FGIN-1-27. (c) Pie charts showing proportions of different fatty acid classes namely PUFAs, MUFAs, ODD and SFAs within the cholesterol esters. (d) Transcript analysis for CD5L 72 hours post treatment with FGIN-1-27. The error bars represent SD.
# Th17 cells were differentiated from naïve purified CD4 T cells and treated with either FGIN-1-27 (10 µM) or DMSO during polarization. 10 million cells/treatment were harvested and snap frozen. […] The extracts were concentrated under nitrogen and reconstituted in 0.25 mL of dichloromethane:methanol (50:50) containing 10 mM ammonium acetate. The extracts were placed in vials for infusion-MS analyses, performed on a SelexION equipped Sciex 5500 QTRAP using both positive and negative mode electrospray. Each sample was subjected to 2 analyses, with IMS-MS conditions optimized for lipid classes monitored in each analysis. The 5500 QTRAP was operated in MRM mode to monitor the transitions for over 1,100 lipids from up to 14 lipid classes. Individual lipid species were quantified based on the ratio of signal intensity for target compounds to the signal intensity for an assigned internal standard of known concentration. Lipid class concentrations were calculated from the sum of all molecular species within a class, and fatty acid compositions were determined by calculating the proportion of individual fatty acids within each class.
smiles,measurement,setting,value
"CCCCCCN(CCCCCC)C(=O)Cc1c(-c2ccc(F)cc2)[nH]c2ccccc12 [FGIN-1-27, N, N-di-n-hexyl 2-(4-fluorophenyl) indole-3-acetamide]",down-regulation of cholesterol esters,"72 hours, 10 µM",5 folds
same,reduction in triacylglycerides (TAGs),"72 hours, 10 µM",2 fold
same,MUFA proportion within the cholesterol esters,Fig. 6c pie chart,39%
same,ODD proportion within the cholesterol esters,Fig. 6c pie chart,10%
same,PUFA proportion within the cholesterol esters,Fig. 6c pie chart,14%
same,SFA proportion within the cholesterol esters,Fig. 6c pie chart,37%
same,nCE,"Th17 cells, 10 µM",0.3432
same,nCE(12:0),"Th17 cells, 10 µM",0.3209
same,nCE(14:0),"Th17 cells, 10 µM",7.863
same,nCE(14:1),"Th17 cells, 10 µM",0.8946
same,nCE(15:0),"Th17 cells, 10 µM",6.739
same,nCE(16:0),"Th17 cells, 10 µM",20.165
same,nCE(16:1),"Th17 cells, 10 µM",5.753
same,nCE(17:0),"Th17 cells, 10 µM",3.887
same,nCE(18:0),"Th17 cells, 10 µM",9.753
same,nCE(18:1),"Th17 cells, 10 µM",25.3604
same,nCE(18:2),"Th17 cells, 10 µM",6.676
same,nCE(18:3),"Th17 cells, 10 µM",0.6485
same,nCE(18:4),"Th17 cells, 10 µM",0.0392
same,nCE(20:0),"Th17 cells, 10 µM",0.838
same,nCE(20:1),"Th17 cells, 10 µM",1.913
same,nCE(20:2),"Th17 cells, 10 µM",0.3245
same,nCE(20:3),"Th17 cells, 10 µM",0.8988
same,nCE(20:4),"Th17 cells, 10 µM",3.812
same,nCE(20:5),"Th17 cells, 10 µM",0.1401
same,nCE(22:0),"Th17 cells, 10 µM",0.2674
same,nCE(22:1),"Th17 cells, 10 µM",0.4486
same,nCE(22:2),"Th17 cells, 10 µM",0.3494
same,nCE(22:4),"Th17 cells, 10 µM",0.2548
same,nCE(22:5),"Th17 cells, 10 µM",0.2179
same,nCE(22:6),"Th17 cells, 10 µM",0.5711
same,nCE(24:0),"Th17 cells, 10 µM",0.624
same,nCE(24:1),"Th17 cells, 10 µM",1.24
same,nCER,"Th17 cells, 10 µM",0.6286
same,nCER(14:0),"Th17 cells, 10 µM",0.8623
same,nCER(16:0),"Th17 cells, 10 µM",27.3543
same,nCER(18:0),"Th17 cells, 10 µM",2.572
same,nCER(18:1),"Th17 cells, 10 µM",0.1145
same,nCER(20:0),"Th17 cells, 10 µM",2.068
same,nCER(20:1),"Th17 cells, 10 µM",0.05342
same,nCER(22:0),"Th17 cells, 10 µM",7.074
same,nCER(22:1),"Th17 cells, 10 µM",0.4579
same,nCER(24:0),"Th17 cells, 10 µM",30.2198
same,nCER(24:1),"Th17 cells, 10 µM",28.2356
same,nCER(26:0),"Th17 cells, 10 µM",0.4655
same,nCER(26:1),"Th17 cells, 10 µM",0.5227
same,nCER[FA14:0],"Th17 cells, 10 µM",0.8623
same,nCER[FA16:0],"Th17 cells, 10 µM",27.3543
same,nCER[FA18:0],"Th17 cells, 10 µM",2.572
same,nCER[FA18:1],"Th17 cells, 10 µM",0.1145
same,nCER[FA20:0],"Th17 cells, 10 µM",2.068
same,nCER[FA20:1],"Th17 cells, 10 µM",0.05342
same,nCER[FA22:0],"Th17 cells, 10 µM",7.074
same,nCER[FA22:1],"Th17 cells, 10 µM",0.4579
same,nCER[FA24:0],"Th17 cells, 10 µM",30.2198
same,nCER[FA24:1],"Th17 cells, 10 µM",28.2356
same,nCER[FA26:0],"Th17 cells, 10 µM",0.4655
same,nCER[FA26:1],"Th17 cells, 10 µM",0.5227
same,nCE[FA12:0],"Th17 cells, 10 µM",0.3209
same,nCE[FA14:0],"Th17 cells, 10 µM",7.863
same,nCE[FA14:1],"Th17 cells, 10 µM",0.8946
same,nCE[FA15:0],"Th17 cells, 10 µM",6.739
same,nCE[FA16:0],"Th17 cells, 10 µM",20.165
same,nCE[FA16:1],"Th17 cells, 10 µM",5.753
same,nCE[FA17:0],"Th17 cells, 10 µM",3.887
same,nCE[FA18:0],"Th17 cells, 10 µM",9.753
same,nCE[FA18:1],"Th17 cells, 10 µM",25.3604
same,nCE[FA18:2],"Th17 cells, 10 µM",6.676
same,nCE[FA18:3],"Th17 cells, 10 µM",0.6485
same,nCE[FA18:4],"Th17 cells, 10 µM",0.0392
same,nCE[FA20:0],"Th17 cells, 10 µM",0.838
same,nCE[FA20:1],"Th17 cells, 10 µM",1.913
same,nCE[FA20:2],"Th17 cells, 10 µM",0.3245
same,nCE[FA20:3],"Th17 cells, 10 µM",0.8988
same,nCE[FA20:4],"Th17 cells, 10 µM",3.812
same,nCE[FA20:5],"Th17 cells, 10 µM",0.1401
same,nCE[FA22:0],"Th17 cells, 10 µM",0.2674
same,nCE[FA22:1],"Th17 cells, 10 µM",0.4486
same,nCE[FA22:2],"Th17 cells, 10 µM",0.3494
same,nCE[FA22:4],"Th17 cells, 10 µM",0.2548
same,nCE[FA22:5],"Th17 cells, 10 µM",0.2179
same,nCE[FA22:6],"Th17 cells, 10 µM",0.5711
same,nCE[FA24:0],"Th17 cells, 10 µM",0.624
same,nCE[FA24:1],"Th17 cells, 10 µM",1.24
same,nDAG,"Th17 cells, 10 µM",2.149
same,nDAG(12:0/16:0),"Th17 cells, 10 µM",0.1725
same,nDAG(12:0/18:0),"Th17 cells, 10 µM",0.3066
same,nDAG(12:0/18:1),"Th17 cells, 10 µM",0.3287
same,nDAG(12:0/18:2),"Th17 cells, 10 µM",0.07889
same,nDAG(14:0/14:0),"Th17 cells, 10 µM",0.8017
same,nDAG(14:0/16:0),"Th17 cells, 10 µM",9.103
same,nDAG(14:0/16:1),"Th17 cells, 10 µM",1.239
same,nDAG(14:0/18:1),"Th17 cells, 10 µM",2.636
same,nDAG(14:0/18:2),"Th17 cells, 10 µM",0.1578
same,nDAG(14:0/18:3),"Th17 cells, 10 µM",0.01025
same,nDAG(14:0/20:0),"Th17 cells, 10 µM",0.2618
same,nDAG(14:0/20:4),"Th17 cells, 10 µM",0.02818
same,nDAG(14:0/22:6),"Th17 cells, 10 µM",0.05137
same,nDAG(14:1/16:0),"Th17 cells, 10 µM",0.2729
same,nDAG(14:1/18:1),"Th17 cells, 10 µM",0.217
same,nDAG(15:0/18:1),"Th17 cells, 10 µM",0.2893
